# Earlier results in patent US20070003613A1, “Preparations to support maintenance of acid-alkaline balance in the human body and methods directed to using same” (priority 2005, published 2007).
# Settings: second dissociation
compound,measurement,value
NCC(=O)O [glycine],pH at which the second H+ ion is liberated,9.6
